Measurements published in US20250152574A1 (BIOGEN MA INC., priority 2022, published 2025).

target: T1, EBP (Homo sapiens, UniProt Q15125); experiment: EBP Functional Assay (EBP immunoaffinity LC-MS assay); type: biochemical; conditions: HEK293T cells as source of EBP enzyme; substrate zymosterol-d5, 37° C. for 4 h; percent conversion to dehydrolathosterol-d5 by LC-APCI MRM MS
T1 construct: HEK293T cells were utilized as the source of EBP enzyme; endogenous in cells; host or cells: HEK293T
Description: The EBP immunoaffinity (IA) LC-MS assay measures the potency of small molecule inhibitors of EBP by quantifying their concentration-dependent changes in the enzyme's substrate and product using liquid chromatography atmospheric pressure chemical ionization multiple reaction monitoring mass spectrometry (LC-APCI MRM MS). HEK293T cells were utilized as the source of EBP enzyme. The enzyme was incubated with the small molecule inhibitors at variable concentrations for 30 min. Deuterated form of EBP substrate, zymosterol-d5 (Avanti Polar Lipids, Cat #700068P-1 mg), was then added and the plate was incubated at 37° C. for 4 h. Finally, the sterol isomers were extracted and injected to LC-APCI MRM MS. MRM transition used for the quantification for both zymosterol and […] (substrate and product of EBP enzymatic reaction, respectively) is 372.3-203.2, CE 30 and DP 80 in positive ion mode. Percent conversion of the zymosterol-d5 to dehydrolathosterol-d5 was used to derive IC50 curves. Tasin-1 (1′-[(4-Methoxyphenyl)sulfonyl]-4-methyl-1,4′-bipiperidine, CAS 792927-06-1) was used as the reference small molecule inhibitor.
Percent conversion versus the compound concentration data were fit to the following 4-parameter logistic model to generate IC50 curves: […]

T1 sequence (Q15125 whole entry): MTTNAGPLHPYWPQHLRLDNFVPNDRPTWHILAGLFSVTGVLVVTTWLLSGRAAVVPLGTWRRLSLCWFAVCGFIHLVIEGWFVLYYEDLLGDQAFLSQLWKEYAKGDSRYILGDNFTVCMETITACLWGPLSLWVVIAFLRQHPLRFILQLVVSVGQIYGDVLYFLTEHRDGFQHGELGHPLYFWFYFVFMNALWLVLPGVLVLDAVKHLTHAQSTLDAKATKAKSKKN

Compound | IC50
COCCNC1COC2(CCN(S(=O)(=O)c3cc(C#N)ccc3F)CC2)C1 (stereo not shown) [Example 44, 4-Fluoro-3-((3-((2-methoxyethyl)amino)-1-oxa-8-azaspiro[4.5]decan-8-yl)sulfonyl)benzonitrile] | 250 to 1500 nM
CCOc1ccc(S(=O)(=O)N2CCC3(CCC(N4CC5(COC5)C4)C3)CC2)cc1 (stereo not shown) [Example 108] | 250 to 1500 nM
N#Cc1ccc(S(=O)(=O)N2CCC3(CC2)CC(N2CC4(COC4)C2)CO3)c(Cl)c1 (stereo not shown) [Example 9] | 250 to 1500 nM
O=S(=O)(c1ccc(OC(F)F)cc1)N1CCC2(CC1)CC(N1CCCCC1)CO2 (stereo not shown) [Example 14, 8-((4-(Difluoromethoxy)phenyl)sulfonyl)-3-(piperidin-1-yl)-1-oxa-8-azaspiro[4.5]decane] | 250 to 1500 nM
N#Cc1ccc(F)c(S(=O)(=O)N2CCC3(CC2)CC(N2C[C@H]4C[C@@H]2CO4)CO3)c1 (stereo partly drawn) [Example 45, 3-((3-((1R,4R)-2-oxa-5-azabicyclo[2.2.1]heptan-5-yl)-1-oxa-8-azaspiro[4.5]decan-8-yl)sulfonyl)-4-fluorobenzonitrile] | 250 to 1500 nM
Cc1cc(S(=O)(=O)N2CCC3(CC2)CC(N2CCC4(CCOC4)C2)CO3)n(C)n1 (stereo not shown) [Example 29, 8-((1,3-Dimethyl-1H-pyrazol-5-yl)sulfonyl)-3-(2-oxa-7-azaspiro[4.4]nonan-7-yl)-1-oxa-8-azaspiro[4.5]decane] | 250 to 1500 nM
N#Cc1cc(F)cc(S(=O)(=O)N2CCC3(CC2)CC(NCC2CCOCC2)CO3)c1 (stereo not shown) [Example 98, 3-fluoro-5-((3-(((tetrahydro-2H-pyran-4-yl)methyl)amino)-1-oxa-8-azaspiro[4.5]decan-8-yl)sulfonyl)benzonitrile] | 250 to 1500 nM
COc1ncc(C)cc1S(=O)(=O)N1CCC2(CC1)CC(N1CC3(COC3)C1)CO2 (stereo not shown) [Example 117, 8-((2-methoxy-5-methylpyridin-3-yl)sulfonyl)-3-(2-oxa-6-azaspiro[3.3]heptan-6-yl)-1-oxa-8-azaspiro[4.5]decane] | 250 to 1500 nM
Cc1cc(OC(F)(F)F)ccc1S(=O)(=O)N1CCC2(CC1)CC(N1CCOCC1)CO2 (stereo not shown) [Example 54, 8-((2-Methyl-4-(trifluoromethoxy)phenyl)sulfonyl)-3-morpholino-1-oxa-8-azaspiro[4.5]decane] | 250 to 1500 nM
COc1ncc(Cl)cc1S(=O)(=O)N1CCC2(CC1)CC(N1CC(OC)C1)CO2 (stereo not shown) [Example 61, 8-((5-Chloro-2-methoxypyridin-3-yl)sulfonyl)-3-(3-methoxyazetidin-1-yl)-1-oxa-8-azaspiro[4.5]decane] | 250 to 1500 nM
COCCN(C)C1CC2(CCN(S(=O)(=O)c3cc(C)nn3C)CC2)C1 [Example 91, 7-((1,3-dimethyl-1H-pyrazol-5-yl)sulfonyl)-N-(2-methoxyethyl)-N-methyl-7-azaspiro[3.5]nonan-2-amine] | 250 to 1500 nM
COc1cc(S(=O)(=O)N2CCC3(CC2)CC(N2CC4(COC4)C2)CO3)c(F)cn1 (stereo not shown) [Example 115] | 250 to 1500 nM
Cc1ccc(C#N)cc1S(=O)(=O)N1CCC2(CC1)C[C@H](N1CCOCC1)CO2 (single isomer, unassigned) [Example 15b] | 250 to 1500 nM
O=S(=O)(c1ccc(OC2CC2)cc1)N1CCC2(CCC(N3CC4(COC4)C3)C2)CC1 (stereo not shown) [Example 134, 6-(8-((4-cyclopropoxyphenyl)sulfonyl)-8-azaspiro[4.5]decan-2-yl)-2-oxa-6-azaspiro[3.3]heptane] | 250 to 1500 nM
CCn1ncc(S(=O)(=O)N2CCC3(CCC(N4CC5(COC5)C4)C3)CC2)n1 (stereo not shown) [Example 111] | 250 to 1500 nM
N#Cc1ccc(F)c(S(=O)(=O)N2CCC3(CC2)CC(N2CC4(COC4)C2)CO3)c1 (stereo not shown) [Example 46, 3-((3-(2-Oxa-6-azaspiro[3.3]heptan-6-yl)-1-oxa-8-azaspiro[4.5]decan-8-yl)sulfonyl)-4-fluorobenzonitrile] | 250 to 1500 nM
COCCNC1COC2(CCN(S(=O)(=O)c3cc(C4CC4)nn3C)CC2)C1 (stereo not shown) [Example 59, 8-((3-Cyclopropyl-1-methyl-1H-pyrazol-5-yl)sulfonyl)-N-(2-methoxyethyl)-1-oxa-8-azaspiro[4.5]decan-3-amine] | 250 to 1500 nM
O=S(=O)(c1cc(F)ccc1F)N1CCC2(CC1)CC(N1CCOCC1)CO2 (stereo not shown) [Example 19, 8-((2,5-Difluorophenyl)sulfonyl)-3-morpholino-1-oxa-8-azaspiro[4.5]decane] | 250 to 1500 nM

Continued, values first:

IC50 | Compound
< 100 nM | O=S(=O)(c1coc(C(F)(F)F)c1)N1CCC2(CCC(N3CC4(COC4)C3)C2)CC1 (stereo not shown) [Example 101, 6-(8-((5-(trifluoromethyl)furan-3-yl)sulfonyl)-8-azaspiro[4.5]decan-2-yl)-2-oxa-6-azaspiro[3.3]heptane]
100 to 250 nM | Cc1cc(S(=O)(=O)N2CCC3(CC2)C[C@H](N2CC[C@@]4(CCOC4)C2)CO3)n(C)n1 (single isomer, unassigned) [Example 72a]
100 to 250 nM | Cc1cc(S(=O)(=O)N2CCC3(CCC(N4CC5(COC5)C4)C3)CC2)cnc1C (stereo not shown) [Example 109]
< 100 nM | O=S(=O)(c1ccc(F)cc1)N1CCC2(CCC(N3CC4(COC4)C3)C2)CC1 (stereo not shown) [Example 12]
100 to 250 nM | N#Cc1cc(F)cc(S(=O)(=O)N2CCC3(CCC(N4CC5(COC5)C4)C3)CC2)c1 (stereo not shown) [Example 13]
< 100 nM | O=S(=O)(c1ccc(OC(F)F)cc1)N1CCC2(CCC(N3C[C@H]4C[C@@H]3CO4)C2)CC1 (stereo partly drawn) [Example 27, (1R,4R)-5-(8-((4-(Difluoromethoxy)phenyl)sulfonyl)-8-azaspiro[4.5]decan-2-yl)-2-oxa-5-azabicyclo[2.2.1]heptane]
< 100 nM | Cn1nc(C(F)F)cc1S(=O)(=O)N1CCC2(CC1)CC(N1CC3(COC3)C1)C2 [Example 122, 6-(7-((3-(difluoromethyl)-1-methyl-1H-pyrazol-5-yl)sulfonyl)-7-azaspiro[3.5]nonan-2-yl)-2-oxa-6-azaspiro[3.3]heptane]
100 to 250 nM | COc1ncc(C)cc1S(=O)(=O)N1CCC2(CC1)CC(N1CC3(COC3)C1)C2 [Example 93, 6-(7-((2-methoxy-5-methylpyridin-3-yl)sulfonyl)-7-azaspiro[3.5]nonan-2-yl)-2-oxa-6-azaspiro[3.3]heptane]
100 to 250 nM | O=S(=O)(c1cc(F)cc(F)c1)N1CCC2(CC1)CC(N1CC3(COC3)C1)CO2 (racemic) [Example 118, rac-8-((3,5-difluorophenyl)sulfonyl)-3-(2-oxa-6-azaspiro[3.3]heptan-6-yl)-1-oxa-8-azaspiro[4.5]decane]
100 to 250 nM | Cc1cc(S(=O)(=O)N2CCC3(CC2)CC(N2CC4(COC4)C2)C3)n(C)n1 [Example 92, 6-(7-((1,3-dimethyl-1H-pyrazol-5-yl)sulfonyl)-7-azaspiro[3.5]nonan-2-yl)-2-oxa-6-azaspiro[3.3]heptane]
< 100 nM | Cn1nc(C2CC2)cc1S(=O)(=O)N1CCC2(CC1)CC(NC1CCOCC1)C2 [Example 120, 7-((3-cyclopropyl-1-methyl-1H-pyrazol-5-yl)sulfonyl)-N-(tetrahydro-2H-pyran-4-yl)-7-azaspiro[3.5]nonan-2-amine]
< 100 nM | Cc1nc(OC(F)F)ccc1S(=O)(=O)N1CCC2(CC1)CC(N1CC3(COC3)C1)C2 [Example 121, 6-(7-((6-(difluoromethoxy)-2-methylpyridin-3-yl)sulfonyl)-7-azaspiro[3.5]nonan-2-yl)-2-oxa-6-azaspiro[3.3]heptane]
< 100 nM | COc1cc(S(=O)(=O)N2CCC3(CCC(N4CC5(COC5)C4)C3)CC2)c(F)cn1 (stereo not shown) [Example 113]
100 to 250 nM | Cc1ccc(S(=O)(=O)N2CCC3(CC2)CC(N2CC(C)(O)C2)CO3)c(Cl)c1 (stereo not shown) [Example 50, 1-(8-((2-Chloro-4-methylphenyl)sulfonyl)-1-oxa-8-azaspiro[4.5]decan-3-yl)-3-methylazetidin-3-ol]
< 100 nM | COc1ccc(S(=O)(=O)N2CCC3(CCC(N4CC(O)C4)C3)CC2)c(C)n1 (stereo not shown) [Example 99, 1-(8-((6-methoxy-2-methylpyridin-3-yl)sulfonyl)-8-azaspiro[4.5]decan-2-yl)azetidin-3-ol]
100 to 250 nM | Cc1cc(S(=O)(=O)N2CCC3(CCC(N4C[C@H]5C[C@@H]4CO5)C3)CC2)n(C)n1 (stereo partly drawn) [Example 88, (1R,4R)-5-(8-((1,3-dimethyl-1H-pyrazol-5-yl)sulfonyl)-8-azaspiro[4.5]decan-2-yl)-2-oxa-5-azabicyclo[2.2.1]heptane]
< 100 nM | COc1ccc(S(=O)(=O)N2CCC3(CCC(N4CC5(COC5)C4)C3)CC2)c(F)c1 (stereo not shown) [Example 129, 6-(8-((2-fluoro-4-methoxyphenyl)sulfonyl)-8-azaspiro[4.5]decan-2-yl)-2-oxa-6-azaspiro[3.3]heptane]
< 100 nM | Cc1ccc(S(=O)(=O)N2CCC3(CC2)C[C@@H](N2CC(O)C2)CO3)c(Cl)c1 (single isomer, unassigned) [Example 53a]
100 to 250 nM | Cc1ccc(S(=O)(=O)N2CCC3(CC2)C[C@H](N2CC(O)C2)CO3)c(Cl)c1 (single isomer, unassigned) [Example 53b]
< 100 nM | O=S(=O)(c1ccc(OC(F)F)cc1)N1CCC2(CC[C@H](N3C[C@@H]4C[C@H]3CO4)C2)CC1 (single isomer, unassigned) [Example 90b]
100 to 250 nM | Cc1cc(S(=O)(=O)N2CCC3(CC[C@@H](N4CC5(COC5)C4)C3)CC2)n(C)n1 (single isomer, unassigned) [Example 68a]
100 to 250 nM | COc1ccc(S(=O)(=O)N2CCC3(CCC(N4CC5(COC5)C4)C3)CC2)cn1 (stereo not shown) [Example 110]
